The text below walks through data of patent US8507477B2, “3- and 6-quinolines with N-attached heterocyclic CGRP receptor antagonists” (Merck, Sharp & Dohme, Corp., priority 2008, dated 2013).

The structures appear in SMILES notation.

This assay deals with recombinant human CL receptor/RAMP1 (Homo sapiens (Human), UniProt O60894+Q16602). As to the kind of experiment: Recombinant receptor binding assay (125I-hCGRP displacement, membranes of HEK 293 cells). Conditions: membranes of HEK 293 cells expressing human CL receptor/RAMP1. The procedure: RECOMBINANT RECEPTOR: Human CL receptor (Genbank accession number L76380) was subcloned into the expression vector pIREShyg2 (BD Biosciences Clontech) as a 5′NheI and 3′PmeI fragment. Human RAMP1 (Genbank accession number AJ001014) was subcloned into the expression vector pIRESpuro2 (BD Biosciences Clontech) as a 5′NheI and 3′NotI fragment. HEK 293 cells (human embryonic kidney cells; ATCC #CRL-1573) were cultured in DMEM with 4.5 g/L glucose, 1 mM sodium pyruvate and 2 mM glutamine supplemented with 10% fetal bovine serum (FBS), 100 units/mL penicillin and 100 μg/mL streptomycin, and maintained at 37° C. and 95% humidity. Cells were subcultured by treatment with 0.25% trypsin with 0.1% EDTA in HBSS. Stable cell line generation was accomplished by co-transfecting 10 μg of DNA with 30 μg Lipofectamine 2000 (Invitrogen) in 75 cm^2 flasks. CL receptor and RAMP1 expression constructs were co-transfected in equal amounts. Twenty-four hours after transfection the cells were diluted and selective medium (growth medium+300 μg/mL hygromycin and 1 μg/mL puromycin) was added the following day. A clonal cell line was generated by single cell deposition utilizing a FACS Vantage SE (Becton Dickinson). Growth medium was adjusted to 150 μg/mL hygromycin and 0.5 μg/mL puromycin for cell propagation.
recombinant human CL receptor/RAMP1, sequence (Q16602 23-461): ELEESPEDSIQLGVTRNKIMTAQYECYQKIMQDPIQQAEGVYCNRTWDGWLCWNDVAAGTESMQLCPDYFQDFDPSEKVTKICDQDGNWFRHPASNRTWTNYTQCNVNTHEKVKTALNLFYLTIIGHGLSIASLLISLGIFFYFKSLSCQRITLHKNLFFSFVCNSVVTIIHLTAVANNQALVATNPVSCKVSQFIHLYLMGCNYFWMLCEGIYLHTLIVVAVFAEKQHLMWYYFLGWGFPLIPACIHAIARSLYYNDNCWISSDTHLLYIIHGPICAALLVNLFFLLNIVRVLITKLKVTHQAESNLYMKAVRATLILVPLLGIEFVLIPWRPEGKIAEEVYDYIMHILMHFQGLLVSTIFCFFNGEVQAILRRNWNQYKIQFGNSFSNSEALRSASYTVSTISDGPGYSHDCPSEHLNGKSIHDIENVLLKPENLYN
recombinant human CL receptor/RAMP1, sequence (O60894 27-148): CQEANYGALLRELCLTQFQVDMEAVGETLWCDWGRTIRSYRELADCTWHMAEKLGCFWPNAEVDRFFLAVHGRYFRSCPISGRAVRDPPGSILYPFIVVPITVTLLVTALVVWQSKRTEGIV
RECOMBINANT RECEPTOR BINDING ASSAY: Cells expressing recombinant human CL receptor/RAMP1 were washed with PBS and harvested in harvest buffer containing 50 mM HEPES, 1 mM EDTA and Complete protease inhibitors (Roche). The cell suspension was disrupted with a laboratory homogenizer and centrifuged at 48,000 g to isolate membranes. The pellets were resuspended in harvest buffer plus 250 mM sucrose and stored at −70° C. For binding assays, 20 μg of membranes were incubated in 1 ml binding buffer (10 mM HEPES, pH 7.4, 5 mM MgCl2, and 0.2% BSA) for 3 hours at room temperature containing […] ^125I-hCGRP (GE Healthcare) and antagonist. The assay was terminated by filtration through 96-well GFB glass fiber filter plates (PerkinElmer) that had been blocked with 0.05% polyethyleneimine. The filters were washed 3 times with ice-cold assay buffer (10 mM HEPES, pH 7.4 and 5 mM MgCl2). Scintillation fluid was added and the plates were counted on a Topcount (Packard). Non-specific binding was determined and the data analysis was carried out with the apparent dissociation constant (Ki) determined by using a non-linear least squares fitting the bound CPM data to the equation below:
[formula] Where Y is observed CPM bound, Ymax is total bound counts, Ymin is non specific bound counts, (Ymax−Ymin) is specific bound counts, % Imax is the maximum percent inhibition, % I min is the minimum percent inhibition, radiolabel is the probe, and the Kd is the apparent dissociation constant for the radioligand for the receptor as determined by Hot saturation experiments.
In general, Ki refers to the equilibrium dissociation constant of an inhibitor or competing ligand from its target. For the compound `O=C1N(Cc2ccc3nc4c(cc3c2)C[C@@]2(C4)C(=O)Nc3ncccc32)[C@H](c2cc(F)cc(F)c2)CCNC12CCCC2` [Example 16], the Ki came to 0.89 nM. In the case of `CC(C)N1C(=O)N(Cc2cnc3cc4c(cc3c2)C[C@@]2(C4)C(=O)Nc3ncccc32)C2(CCCc3ccccc32)C1=O` (stereo partly shown) [Example 5] it was 0.057 nM. Under `CC(C)N1C(=O)N(Cc2cnc3cc4c(cc3c2)C[C@@]2(C4)C(=O)Nc3ncccc32)C(C)(c2ccccc2)C1=O` (stereo partly shown) [Example 12] stands 0.28 nM; under `O=C1N(Cc2cnc3cc4c(cc3c2)C[C@@]2(C4)C(=O)Nc3ncccc32)C(c2ccccc2Cl)=NC12CCCC2` [Example 10], 1.3 nM. On to `O=C1N(Cc2cnc3cc4c(cc3c2)C[C@@]2(C4)C(=O)Nc3ncccc32)[C@H](c2cc(F)cc(F)c2)CCC12CCCC2` [Example 9], for which the Ki turned out to be 0.77 nM. Under `CC(C)N1C(=O)N(Cc2cnc3cc4c(cc3c2)C[C@@]2(C4)C(=O)Nc3ncccc32)C2(CCCCCC2)C1=O` [Example 6] stands 0.34 nM; under `O=C1N(Cc2cnc3cc4c(cc3c2)C[C@@]2(C4)C(=O)Nc3ncccc32)[C@H](c2cc(F)cc(F)c2)CNC12CCCC2` [Example 8], 0.14 nM; under `CN1C[C@@](C)(c2cc(F)cc(F)c2)N(Cc2cnc3cc4c(cc3c2)C[C@@]2(C4)C(=O)Nc3ncccc32)C(=O)C12CCCC2` [Example 13], 0.062 nM. For `O=C1NCCN(Cc2cnc3cc4c(cc3c2)C[C@@]2(C4)C(=O)Nc3ncccc32)C1c1ccc(F)cc1` (stereo partly shown) [Example 17], the Ki was determined as 57 nM.

Regarding `O=C1N(Cc2cnc3cc4c(cc3c2)C[C@@]2(C4)C(=O)Nc3ncccc32)[C@H](c2cc(F)cc(F)c2)CCNC12CCCC2` [Example 15], the inhibition constant (Ki) is 0.49 nM.
